Laboratory results: ChEMBL document CHEMBL4507269, “Data for DCP probe BAY-386” (2021)

Assays:
[1] = target: Tyrosine-protein kinase ABL1 (Homo sapiens) (UniProt P00519); settings: Compound concentration 1000.0 nM
[2] = target: NUAK family SNF1-like kinase 1 (Homo sapiens) (UniProt O60285); settings: Compound concentration 1000.0 nM
[3] = target: Mitogen-activated protein kinase kinase kinase 6 (Homo sapiens) (UniProt O95382); settings: Compound concentration 1000.0 nM
[4] = target: Bone morphogenetic protein receptor type-1A (Homo sapiens) (UniProt P36894); settings: Compound concentration 1000.0 nM
[5] = target: Cytoplasmic tyrosine-protein kinase BMX (Homo sapiens) (UniProt P51813); settings: Compound concentration 1000.0 nM
[6] = target: Calcium/calmodulin-dependent protein kinase type II subunit beta (Homo sapiens) (UniProt Q13554); settings: Compound concentration 1000.0 nM
[7] = target: Calcium/calmodulin-dependent protein kinase type IV (Homo sapiens) (UniProt Q16566); settings: Compound concentration 1000.0 nM
[8] = target: Cyclin-dependent kinase 11B (Homo sapiens) (UniProt P21127); settings: Compound concentration 1000.0 nM
[9] = target: Serine/threonine-protein kinase DCLK1 (Homo sapiens) (UniProt O15075); settings: Compound concentration 1000.0 nM
[10] = tested on: Epidermal growth factor receptor (Homo sapiens), P00533 [UNDEFINED MUTATION]; settings: Compound concentration 1000.0 nM
[11] = target: Ephrin type-A receptor 2 (Homo sapiens) (UniProt P29317); settings: Compound concentration 1000.0 nM
[12] = tested on: Receptor-type tyrosine-protein kinase FLT3 (Homo sapiens), P36888 [R834Q]; settings: Compound concentration 1000.0 nM
[13] = target: Glycogen synthase kinase-3 alpha (Homo sapiens) (UniProt P49840); settings: Compound concentration 1000.0 nM
[14] = target: Hormonally up-regulated neu tumor-associated kinase (Homo sapiens) (UniProt P57058); settings: Compound concentration 1000.0 nM
[15] = target: Interleukin-1 receptor-associated kinase 1 (Homo sapiens) (UniProt P51617); settings: Compound concentration 1000.0 nM
[16] = tested on: Mast/stem cell growth factor receptor Kit (Homo sapiens), P10721 [L576P]; settings: Compound concentration 1000.0 nM
[17] = tested on: Leucine-rich repeat serine/threonine-protein kinase 2 (Homo sapiens), Q5S007 [G2019S]; settings: Compound concentration 1000.0 nM
[18] = target: Dual specificity mitogen-activated protein kinase kinase 3 (Homo sapiens) (UniProt P46734); settings: Compound concentration 1000.0 nM
[19] = target: Hepatocyte growth factor receptor (Homo sapiens) (UniProt P08581); settings: Compound concentration 1000.0 nM
[20] = target: Serine/threonine-protein kinase mTOR (Homo sapiens) (UniProt P42345); settings: Compound concentration 1000.0 nM
[21] = target: Myosin light chain kinase family member 4 (Homo sapiens) (UniProt Q86YV6); settings: Compound concentration 1000.0 nM
[22] = target: Serine/threonine-protein kinase Nek9 (Homo sapiens) (UniProt Q8TD19); settings: Compound concentration 1000.0 nM
[23] = target: Mitogen-activated protein kinase 14 (Homo sapiens) (UniProt Q16539); settings: Compound concentration 1000.0 nM
[24] = tested on: Phosphatidylinositol 4,5-bisphosphate 3-kinase catalytic subunit alpha isoform (Homo sapiens), P42336 [M1043I]; settings: Compound concentration 1000.0 nM
[25] = target: Phosphatidylinositol 4,5-bisphosphate 3-kinase catalytic subunit delta isoform (Homo sapiens) (UniProt O00329); settings: Compound concentration 1000.0 nM
[26] = tested on: Proto-oncogene tyrosine-protein kinase receptor Ret (Homo sapiens), P07949 [V804L]; settings: Compound concentration 1000.0 nM
[27] = target: Receptor-interacting serine/threonine-protein kinase 4 (Homo sapiens) (UniProt P57078); settings: Compound concentration 1000.0 nM
[28] = target: Ribosomal protein S6 kinase alpha-4 (Homo sapiens) (UniProt O75676); settings: Compound concentration 1000.0 nM
[29] = target: Ribosomal protein S6 kinase alpha-5 (Homo sapiens) (UniProt O75582); settings: Compound concentration 1000.0 nM
[30] = target: Ribosomal protein S6 kinase alpha-3 (Homo sapiens) (UniProt P51812); settings: Compound concentration 1000.0 nM
[31] = target: STE20-like serine/threonine-protein kinase (Homo sapiens) (UniProt Q9H2G2); settings: Compound concentration 1000.0 nM
[32] = target: Proto-oncogene tyrosine-protein kinase Src (Homo sapiens) (UniProt P12931); settings: Compound concentration 1000.0 nM
[33] = target: Dual specificity testis-specific protein kinase 1 (Homo sapiens) (UniProt Q15569); settings: Compound concentration 1000.0 nM
[34] = target: Serine/threonine-protein kinase TNNI3K (Homo sapiens) (UniProt Q59H18); settings: Compound concentration 1000.0 nM
[35] = target: Serine/threonine-protein kinase ULK2 (Homo sapiens) (UniProt Q8IYT8); settings: Compound concentration 1000.0 nM
[36] = target: Wee1-like protein kinase (Homo sapiens) (UniProt P30291); settings: Compound concentration 1000.0 nM
[37] = target: Serine/threonine-protein kinase WNK4 (Homo sapiens) (UniProt Q96J92); settings: Compound concentration 1000.0 nM
[38] = target: Serine/threonine-protein kinase 32C (Homo sapiens) (UniProt Q86UX6); settings: Compound concentration 1000.0 nM
[39] = target: Tyrosine-protein kinase ZAP-70 (Homo sapiens) (UniProt P43403); settings: Compound concentration 1000.0 nM
[40] = target: 5-hydroxytryptamine receptor 2A (Homo sapiens) (UniProt P28223); settings: Compound concentration 10.0 uM
[41] = target: Muscarinic acetylcholine receptor M3 (Homo sapiens) (UniProt P20309); settings: Compound concentration 10.0 uM

Chain of Ephrin type-A receptor 2 (Homo sapiens) (P29317 whole entry): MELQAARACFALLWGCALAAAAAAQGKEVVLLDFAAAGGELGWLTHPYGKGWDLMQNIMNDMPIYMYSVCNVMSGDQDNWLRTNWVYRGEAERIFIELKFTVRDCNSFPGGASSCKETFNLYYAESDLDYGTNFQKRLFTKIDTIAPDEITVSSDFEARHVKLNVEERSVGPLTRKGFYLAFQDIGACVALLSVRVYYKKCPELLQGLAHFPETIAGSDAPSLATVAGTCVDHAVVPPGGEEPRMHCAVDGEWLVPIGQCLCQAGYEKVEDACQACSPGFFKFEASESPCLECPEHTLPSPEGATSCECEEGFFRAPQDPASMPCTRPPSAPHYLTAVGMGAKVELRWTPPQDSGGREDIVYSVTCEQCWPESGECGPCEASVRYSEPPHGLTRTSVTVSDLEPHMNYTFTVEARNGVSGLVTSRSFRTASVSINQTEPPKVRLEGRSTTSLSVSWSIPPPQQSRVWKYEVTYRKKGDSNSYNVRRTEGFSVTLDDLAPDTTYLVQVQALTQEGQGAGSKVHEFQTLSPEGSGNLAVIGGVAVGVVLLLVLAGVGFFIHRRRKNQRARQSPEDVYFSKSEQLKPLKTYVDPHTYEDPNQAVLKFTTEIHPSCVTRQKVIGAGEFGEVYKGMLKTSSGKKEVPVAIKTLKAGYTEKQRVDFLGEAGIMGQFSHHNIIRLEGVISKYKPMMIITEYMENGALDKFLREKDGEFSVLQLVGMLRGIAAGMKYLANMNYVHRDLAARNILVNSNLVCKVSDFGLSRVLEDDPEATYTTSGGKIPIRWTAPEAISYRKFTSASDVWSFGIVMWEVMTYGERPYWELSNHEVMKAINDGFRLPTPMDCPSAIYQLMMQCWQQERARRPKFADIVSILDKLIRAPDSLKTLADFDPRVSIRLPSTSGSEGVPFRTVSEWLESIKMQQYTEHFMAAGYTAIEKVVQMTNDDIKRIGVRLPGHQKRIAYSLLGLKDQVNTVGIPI
Chain of Tyrosine-protein kinase ABL1 (Homo sapiens) (P00519 whole entry): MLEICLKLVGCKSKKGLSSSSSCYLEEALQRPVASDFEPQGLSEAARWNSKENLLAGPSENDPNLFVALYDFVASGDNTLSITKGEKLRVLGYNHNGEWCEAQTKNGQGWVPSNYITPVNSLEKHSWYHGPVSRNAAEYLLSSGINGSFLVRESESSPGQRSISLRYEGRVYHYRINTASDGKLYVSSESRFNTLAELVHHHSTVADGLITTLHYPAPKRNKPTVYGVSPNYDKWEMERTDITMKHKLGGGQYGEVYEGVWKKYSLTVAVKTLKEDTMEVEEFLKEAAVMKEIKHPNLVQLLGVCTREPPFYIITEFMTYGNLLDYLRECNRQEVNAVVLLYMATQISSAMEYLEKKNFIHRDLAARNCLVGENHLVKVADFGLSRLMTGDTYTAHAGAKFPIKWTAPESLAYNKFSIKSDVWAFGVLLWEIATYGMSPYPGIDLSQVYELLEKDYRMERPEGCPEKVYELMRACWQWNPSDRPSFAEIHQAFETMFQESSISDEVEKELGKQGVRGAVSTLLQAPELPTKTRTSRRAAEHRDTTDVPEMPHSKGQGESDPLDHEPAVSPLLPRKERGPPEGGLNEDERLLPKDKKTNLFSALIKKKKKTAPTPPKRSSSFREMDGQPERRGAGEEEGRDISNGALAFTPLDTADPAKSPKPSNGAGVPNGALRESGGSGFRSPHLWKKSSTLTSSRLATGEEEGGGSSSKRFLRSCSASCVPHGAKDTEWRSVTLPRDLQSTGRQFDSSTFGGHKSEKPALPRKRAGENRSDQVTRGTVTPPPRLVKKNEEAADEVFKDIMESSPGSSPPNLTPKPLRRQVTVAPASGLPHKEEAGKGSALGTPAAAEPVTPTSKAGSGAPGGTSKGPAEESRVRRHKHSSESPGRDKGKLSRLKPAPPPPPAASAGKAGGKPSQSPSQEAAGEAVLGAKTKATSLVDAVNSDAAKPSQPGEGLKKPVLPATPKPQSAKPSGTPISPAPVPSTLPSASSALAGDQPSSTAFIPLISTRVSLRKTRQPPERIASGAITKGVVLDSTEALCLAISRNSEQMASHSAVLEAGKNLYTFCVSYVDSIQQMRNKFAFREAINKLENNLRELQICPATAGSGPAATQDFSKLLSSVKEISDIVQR
Chain of Ribosomal protein S6 kinase alpha-4 (Homo sapiens) (O75676 whole entry, looked up): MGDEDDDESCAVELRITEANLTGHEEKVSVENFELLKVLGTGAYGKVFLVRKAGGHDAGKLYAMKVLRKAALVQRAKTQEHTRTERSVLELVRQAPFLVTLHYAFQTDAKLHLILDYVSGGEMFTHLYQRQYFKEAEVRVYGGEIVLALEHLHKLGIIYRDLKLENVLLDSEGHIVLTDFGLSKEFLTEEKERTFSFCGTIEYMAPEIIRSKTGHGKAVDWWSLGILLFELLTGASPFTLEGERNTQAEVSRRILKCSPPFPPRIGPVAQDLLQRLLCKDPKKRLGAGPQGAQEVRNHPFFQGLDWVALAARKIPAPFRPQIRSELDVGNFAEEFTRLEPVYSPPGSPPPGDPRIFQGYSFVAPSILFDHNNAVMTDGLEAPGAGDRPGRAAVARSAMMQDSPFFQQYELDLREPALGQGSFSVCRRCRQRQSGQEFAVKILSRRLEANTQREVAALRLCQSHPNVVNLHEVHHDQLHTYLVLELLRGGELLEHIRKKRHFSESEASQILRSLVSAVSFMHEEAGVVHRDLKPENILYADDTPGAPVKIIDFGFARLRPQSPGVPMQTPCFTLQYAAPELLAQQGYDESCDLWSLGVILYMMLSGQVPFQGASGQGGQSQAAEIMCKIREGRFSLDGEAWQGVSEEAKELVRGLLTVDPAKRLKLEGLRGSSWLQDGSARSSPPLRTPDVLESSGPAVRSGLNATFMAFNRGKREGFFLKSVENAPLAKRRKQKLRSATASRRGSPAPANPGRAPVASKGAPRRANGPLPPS
Chain of Hormonally up-regulated neu tumor-associated kinase (Homo sapiens) (P57058 whole entry): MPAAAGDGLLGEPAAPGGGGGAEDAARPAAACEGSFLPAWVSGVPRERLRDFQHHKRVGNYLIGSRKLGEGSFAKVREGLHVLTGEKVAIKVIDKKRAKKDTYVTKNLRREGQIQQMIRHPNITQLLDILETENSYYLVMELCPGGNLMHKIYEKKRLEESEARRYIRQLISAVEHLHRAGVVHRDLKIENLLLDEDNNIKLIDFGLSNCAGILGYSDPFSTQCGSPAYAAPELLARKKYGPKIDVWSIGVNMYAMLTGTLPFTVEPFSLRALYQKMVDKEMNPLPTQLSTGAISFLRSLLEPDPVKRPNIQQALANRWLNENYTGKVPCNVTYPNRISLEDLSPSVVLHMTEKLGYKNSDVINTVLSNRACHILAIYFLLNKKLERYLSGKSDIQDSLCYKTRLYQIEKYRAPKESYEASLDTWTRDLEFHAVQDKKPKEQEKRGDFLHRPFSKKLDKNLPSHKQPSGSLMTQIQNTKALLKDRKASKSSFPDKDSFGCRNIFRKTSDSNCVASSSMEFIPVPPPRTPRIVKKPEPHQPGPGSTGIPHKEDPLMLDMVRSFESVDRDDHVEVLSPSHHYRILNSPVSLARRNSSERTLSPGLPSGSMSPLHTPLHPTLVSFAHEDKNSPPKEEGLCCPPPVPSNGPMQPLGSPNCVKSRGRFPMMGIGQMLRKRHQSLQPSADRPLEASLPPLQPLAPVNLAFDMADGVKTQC
Chain of Serine/threonine-protein kinase DCLK1 (Homo sapiens) (O15075 whole entry): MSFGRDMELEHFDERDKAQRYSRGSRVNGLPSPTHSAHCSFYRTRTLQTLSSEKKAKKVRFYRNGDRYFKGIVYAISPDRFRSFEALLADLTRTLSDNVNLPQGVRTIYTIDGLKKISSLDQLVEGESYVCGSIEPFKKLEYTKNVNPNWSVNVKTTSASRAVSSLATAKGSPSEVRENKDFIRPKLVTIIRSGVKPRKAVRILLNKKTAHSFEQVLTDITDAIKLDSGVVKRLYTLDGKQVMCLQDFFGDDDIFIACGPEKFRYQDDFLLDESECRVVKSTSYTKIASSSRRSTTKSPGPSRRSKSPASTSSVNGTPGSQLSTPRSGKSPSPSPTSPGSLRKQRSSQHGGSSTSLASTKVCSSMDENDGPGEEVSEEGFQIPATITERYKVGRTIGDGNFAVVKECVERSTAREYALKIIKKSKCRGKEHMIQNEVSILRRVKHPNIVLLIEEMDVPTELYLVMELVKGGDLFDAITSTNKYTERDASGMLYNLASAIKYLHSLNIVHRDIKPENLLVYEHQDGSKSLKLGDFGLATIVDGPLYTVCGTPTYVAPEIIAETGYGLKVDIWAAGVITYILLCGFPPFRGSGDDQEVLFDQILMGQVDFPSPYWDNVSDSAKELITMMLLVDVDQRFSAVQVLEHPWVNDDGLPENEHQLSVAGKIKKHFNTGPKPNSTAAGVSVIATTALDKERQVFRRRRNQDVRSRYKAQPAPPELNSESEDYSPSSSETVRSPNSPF
Chain of Glycogen synthase kinase-3 alpha (Homo sapiens) (P49840 2-483 limits assumed): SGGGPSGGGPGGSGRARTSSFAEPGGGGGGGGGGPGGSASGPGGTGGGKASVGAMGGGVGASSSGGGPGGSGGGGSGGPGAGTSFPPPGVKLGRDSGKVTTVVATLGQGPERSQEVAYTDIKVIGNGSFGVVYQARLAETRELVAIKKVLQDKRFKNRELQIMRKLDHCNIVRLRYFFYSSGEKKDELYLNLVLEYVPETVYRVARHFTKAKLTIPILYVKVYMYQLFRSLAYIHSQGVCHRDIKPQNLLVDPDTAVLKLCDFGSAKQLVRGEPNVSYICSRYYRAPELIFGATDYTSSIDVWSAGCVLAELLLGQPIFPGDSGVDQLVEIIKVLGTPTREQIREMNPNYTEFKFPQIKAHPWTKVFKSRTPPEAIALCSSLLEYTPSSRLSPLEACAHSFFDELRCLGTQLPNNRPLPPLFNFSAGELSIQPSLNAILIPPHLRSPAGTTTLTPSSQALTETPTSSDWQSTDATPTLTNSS

O=C(N1CCS(=O)(=O)CC1)N1C[C@H](c2ccc(OC(F)(F)F)cc2)C[C@H](c2nc(C3CC3)no2)C1 [BAY-386]
inactive: residual activity [1] 84% | residual activity [2] 97% | residual activity [3] 91% | residual activity [4] 89% | residual activity [5] 100% | residual activity [6] 100% | residual activity [7] 91% | residual activity [8] 100% | residual activity [9] 100% | residual activity [10] 77% | residual activity [11] 100% | residual activity [12] 100% | residual activity [13] 100% | residual activity [14] 100% | residual activity [15] 92% | residual activity [16] 100% | residual activity [17] 100% | residual activity [18] 100% | residual activity [19] 100% | residual activity [20] 100% | residual activity [21] 100% | residual activity [22] 100% | residual activity [23] 100% | residual activity [24] 100% | residual activity [25] 97% | residual activity [26] 99% | residual activity [27] 97% | residual activity [28] 82% | residual activity [29] 100% | residual activity [30] 100% | residual activity [31] 100% | residual activity [32] 97% | residual activity [33] 100% | residual activity [34] 100% | residual activity [35] 75% | residual activity [36] 100% | residual activity [37] 100% | residual activity [38] 93% | residual activity [39] 90% | inhibition [40] 10.5% | inhibition [41] -2.11%

Cc1noc([C@H]2C[C@@H](c3ccc(C(F)(F)F)cc3)CN(C(=O)N3CCS(=O)(=O)C3)C2)n1 [BAY-448]
inactive: residual activity [1] 71% | residual activity [2] 100% | residual activity [3] 92% | residual activity [4] 100% | residual activity [5] 100% | residual activity [6] 100% | residual activity [7] 95% | residual activity [8] 100% | residual activity [9] 75% | residual activity [10] 83% | residual activity [11] 100% | residual activity [12] 91% | residual activity [13] 79% | residual activity [14] 100% | residual activity [15] 100% | residual activity [16] 100% | residual activity [17] 94% | residual activity [18] 98% | residual activity [19] 100% | residual activity [20] 92% | residual activity [21] 100% | residual activity [22] 100% | residual activity [23] 79% | residual activity [24] 100% | residual activity [25] 100% | residual activity [26] 100% | residual activity [27] 68% | residual activity [28] 100% | residual activity [29] 100% | residual activity [30] 100% | residual activity [31] 98% | residual activity [32] 96% | residual activity [33] 91% | residual activity [34] 100% | residual activity [35] 100% | residual activity [36] 100% | residual activity [37] 100% | residual activity [38] 100% | residual activity [39] 100% | inhibition [40] -2.96% | inhibition [41] -1.45%
